Source: patent US4012367A, “Anti-ulcer polypeptides containing L-aspartic acid and intermediates thereto” (G. D. Searle & Co., priority 1976, dated 1977)
Non-standard residues stand in square brackets, D forms with d. Residues, ends and D or L forms follow the SMILES beside them. *: point of attachment. Boc = CC(C)(C)OC(=O)*

System: gastric acid secretion induced by the administration of pentagastrin
Experiment: Inhibition of pentagastrin-induced gastric acid secretion in anesthetized rats with perfused stomach (modified Ghosh and Schild)
Format: in vivo
Design: key to rating in assay: antagonism of the secretory response induced by pentagastrin: A test compound is considered active if the standard pentagastrin response is blocked to the extent of at least 50%
Settings: urethane-anesthetized male Charles River rats, gastric effluent pH, pentagastrin 0.1 mcg./rat intravenously
Excerpt: The compounds of the present invention are useful in consequence of their valuable pharmacological properties. They are, for example, gastric anti-secretory agents as evidenced by their ability to inhibit the gastric acid secretion induced by the administration of pentagastrin.
The assay utilized for detection of that property is a modification of the procedure described by Ghosh and Schild, J. Physiol., Lond., 128:35-36P (1955); Br. J. Pharmacol. Chemother., […]:54-61 (1958); and by Smith et al., Br. J. Pharmacol., 38:206-213 (1970). The details of that assay are as follows:
A group of male Charles River rats weighing 300-400 g. are anesthetized by the intramuscular administration of urethane at a dose of 1.5 g./kg. The trachea is exposed and cannulated and a polyethylene tube is passed through the esophagus into the cardiac junction of the stomach and is ligated in place in the neck, excluding the vagal nerves. The external jugular vein is exposed and cannulated to facilitate intravenous administration. The femoral artery is exposed and cannulated for recording of blood pressure. The abdomen is opened. […] The test compounds are evaluated for their ability to antagonize the secretory response induced by the administration of pentagastrin. […]

Compound | rating in assay: antagonism of the secretory response induced by pentagastrin | inhibition of gastric acid secretion induced by pentagastrin (result in words)
CSCC[C@H](NC(=O)[C@H](Cc1c[nH]c2ccccc12)NC(=O)OC(C)(C)C)C(=O)N[C@@H](CC(=O)O)C(=O)N[C@H](C)C(N)=O [N-t-butoxycarbonyl-L-tryptophanyl-L-methionyl-L-aspartyl-D-alanine amide] (Boc-WMD[dA]-NH2) | active | –
CSCC[C@H](NC(=O)OC(C)(C)C)C(=O)N[C@@H](CC(=O)O)C(=O)N[C@H](C)C(N)=O [N-t-butoxycarbonyl-L-methionyl-L-aspartyl-D-alanine amide] (Boc-Met-Asp-[dA]-NH2) | – | particularly active
